Experimental data as given in patent US20050020557A1, “Method for treating diseases using HSP90-inhibiting agents in combination with enzyme inhibitors” (Kosan Biosciences, Inc., priority 2003, published 2005).

How the values were obtained:
[1] = system: ErbB2 protein; assay: ErbB2 protein expression in SKBr3 cells; format: cell-based, human
[2] = clinical trials; twice-weekly regimen; sole agent; cited from earlier work
[3] = system: ErbB2 protein; assay: ErbB2 protein expression in glioma cells; format: cell-based
[4] = system: DLD-1 cells (human colorectal cancer cells); assay: Cell viability (MTS) drug combination assay, combination index by median effect analysis, DLD-1 cells; format: cell-based; settings: combination of enzyme inhibitor with 17-AAG, CI<1 synergism, CI=1 additivity, CI>1 antagonism
Method: Human colon adenocarcinoma cell line, DLD-1, and human breast adenocarcinoma cell line, SKBr-3, were obtained from American Type Culture Collection (manassas, Va.). […] 17-DMAG and 17-AAG were obtained using published procedures. Other cytotoxic agents were purchased commercially from suppliers such as Sigma Chemical Co. (St. Louis, Mo.) and Sequoia Research Products (Oxford, UK).
Cells were seeded in duplicate in 96-well microtiter plates at a density of 5,000 cells per well and allowed to attach overnight. […] Cell viability was determined using the MTS assay (Promega). For the drug combination assay, cells were seeded in duplicate in 96-well plates (5,000 cells/well). […] Based on the IC50 values of each individual drug, combined drug treatment was designed at constant ratios of two drugs, i.e., equivalent to the ratio of their IC50. Two treatment schedules were used: In one schedule, the cells were exposed to 24 hours of 17-AAG or 17-DMAG. The drug was then added to the cells and incubated for 48 hours. […] Cell viability was determined by the MTS assay.
Synergism, additivity or antagonism was determined by median effect analysis using the combination index (CI) calculated using Calcusyn (Biosoft, Cambridge, UK). […] The “enhancing” effect of two drugs can also be determined.

[5] = system: SKBr-3 cells (human breast cancer cells); assay: Cell viability (MTS) drug combination assay, combination index by median effect analysis, SKBr-3 cells; format: cell-based; settings: combination of enzyme inhibitor with 17-AAG, CI<1 synergism, CI=1 additivity, CI>1 antagonism; for CI value, 17-AAG Pre-Administration: 17-AAG 24 h before enzyme inhibitor (48 h); for CI value, 17-AAG Post-Administration: enzyme inhibitor 24 h, then 17-AAG for 48 h
Method: Human colon adenocarcinoma cell line, DLD-1, and human breast adenocarcinoma cell line, SKBr-3, were obtained from American Type Culture Collection (manassas, Va.). […] Other cytotoxic agents were purchased commercially from suppliers such as Sigma Chemical Co. (St. Louis, Mo.) and Sequoia Research Products (Oxford, UK). Cells were seeded in duplicate in 96-well microtiter plates at a density of 5,000 cells per well and allowed to attach overnight. […] Cell viability was determined using the MTS assay (Promega). […] Based on the IC50 values of each individual drug, combined drug treatment was designed at constant ratios of two drugs, i.e., equivalent to the ratio of their IC50. Two treatment schedules were used: In one schedule, the cells were exposed to 24 hours of 17-AAG or 17-DMAG. The drug was then added to the cells and incubated for 48 hours. […] Cell viability was determined by the MTS assay. Synergism, additivity or antagonism was determined by median effect analysis using the combination index (CI) calculated using Calcusyn (Biosoft, Cambridge, UK). […] The “enhancing” effect of two drugs can also be determined.

SMILES	expression of ErbB2 protein [1]	MTD (maximum tolerated dose) [2]	expression of ErbB2 protein [3]	CI value, 17-AAG Pre-Administration ([4]; 17-AAG 24 h before enzyme inhibitor (48 h))	CI value, 17-AAG Post-Administration ([4]; enzyme inhibitor 24 h, then 17-AAG for 48 h)	CI value, 17-AAG Pre-Administration [5]	CI value, 17-AAG Post-Administration [5]
C=CCNC1=C2C[C@@H](C)C[C@H](OC)[C@H](O)[C@@H](C)/C=C(\C)[C@H](OC(N)=O)[C@@H](OC)/C=C\C=C(/C)C(=O)NC(=CC1=O)C2=O [17-AAG, 17-(allylamino)-17-desmethoxygeldanamycin]	reduced the expression of ErbB2 protein	about 220 mg/m2	reduced the expression of ErbB2 protein	–	–	–	–
COc1cc2ncnc(Nc3ccc(F)c(Cl)c3)c2cc1OCCCN1CCOCC1 [Iressa]	–	–	–	0.76 ± 0.37	0.41 ± 0.01	0.77 ± 0.29	0.67 ± 0.02
CC(/C=C/C(=O)NO)=C\[C@@H](C)C(=O)c1ccc(N(C)C)cc1 [Trichostatin A]	–	–	–	–	–	1.16 ± 0.02	0.91 ± 0.007
